Results: ChEMBL document CHEMBL1152004, “Chloramphenicol: High dilution FT-IR evidence for an intramolecular hydrogen bond” (Bioorg Med Chem Lett, 1991)
pKd: −log10 of the molar value.

Target: Ribosome
Assay: Inhibition of protein biosynthesis at the level of the peptidyl transferase center of the 50 s ribosomal subunit
Format: subcellular

pKd: ~6.00
SMILES: O=C(N[C@H](CO)[C@H](O)c1ccc([N+](=O)[O-])cc1)C(Cl)Cl [CHLORAMPHENICOL]
